For one test, the target named is T1, h-5-HT6 receptor (Homo sapiens, UniProt P50406).
T1 construct: expressed in transfected cells; host or cells: HEK293 cells (membranes)
In words: Human 5-HT6 receptor radioligand binding assay (HEK293 membranes, [3H]-LSD). As for the experimental part: (v) Human 5-HT6 Receptor Radioligand Binding Assay
Preparation of Membranes by Ultrasonic Treatment and Differential Centrifugation
Cells from stable clonal cell lines expressing the corresponding receptor (5-HT6) were washed with PBS (without Ca^++, Mg^++) and harvested in PBS with 0.02% EDTA. The cells were collected by centrifugation at 500 g for 10 minutes at 4° C., washed with PBS and centrifuged (500 g, 10 minutes at 4° C.). The pellets were stored at −80° C. until use. For membrane preparation, the thawed cell pellet was resuspended in ice-cold sucrose buffer (0.25 M sucrose, 10 mM HEPES (pH 7.4), 1 mM phenylmethylsulfonyl fluoride (PMSF) in DMSO, 5 μg/ml Pepstatin-A, 3 mM EDTA, 0.025% Bacitracin) and homogenized with a Branson Sonifier W-250 (Settings: Timer 4; Output Control 3; Duty Cycle constant; 2 to 3 cycles). Cell disruption was checked with the aid of a microscope. Remaining unbroken cells were pelleted at 1,000 g for 10 minutes at 4° C. The sucrose buffer supernatant was then centrifuged at 60,000 g for 1 hour at 4° C. (Beckman Ultracentrifuge XL 80). The pellet was resuspended in 30 mL of ice-cold Tris buffer (20 mM TRIS (pH 7.4), 5 μg/mL Pepstatin A, 0.1 mM PMSF, 3 mM EDTA) by pipetting through a 10 mL serological pipette and centrifuged for 1 hour at 4° C. at 60,000 g. A final resuspension was performed in a small volume of ice-cold Tris buffer (see above) by pressing through a serological pipette followed by ultrasonic treatment with a Branson Sonifier W-250 (Settings: Timer 1; Output Control 3; Duty Cycle constant; 1 cycle). Protein concentration was determined (BCA-Kit; Pierce) and aliquots stored at −80° C. or in liquid nitrogen for long-term storage.
Receptor Binding Experiments
All receptor binding experiments were carried out in the corresponding assay buffer in a total volume of 200 μL in the presence of various concentrations of test compound (10^−5 M to 10^−9 M, tenfold serial dilution, duplicate determinations). The assays were terminated by filtration on polyethylenimine (PEI 0.1% or 0.3%) presoaked Packard Unifilter Plates (GF/C or GF/B) with a Tomtec MachIII U 96 well-plate harvester. After the plates had been dried for 2 hours at 55° C. in a drying chamber scintillation cocktail (BetaPlate Scint; PerkinElmer) was added. Radioactivity was measured in a Microbeta Trilux two hours after the addition of the scintillation mixture.
5-HT6 Receptor Binding Assay
HEK293 cells stably expressing the h-5-HT6 receptor (NCBI Reference Sequence XM 001435) were cultured in RPMI1640 medium supplemented with 25 mM HEPES, 10% fetal calf serum and 1-2 mM glutamine. The membrane preparation was performed as described above. […] On the day of the assay, the membranes were thawed, diluted in assay buffer (50 mM Tris-HCl, 5 mM CaCl2, 0.1% ascorbic acid, 10 μM pargyline, pH 7.4) to a concentration of 8 μg protein/assay and homogenized by gentle vortexing. […] Non-specific binding was defined with 1 μM methiothepin. The binding reaction was carried out for 3.5 hours at room temperature. During the incubation, the plates were shaken on a plate shaker at 100 rpm and terminated by filtration on Packard Unifilter GF/C (0.1% PEI) plates, followed by 2 wash cycles with ice-cold 50 mM Tris-HCl, 5 mM CaCl2.
Data derived from liquid scintillation counting were analyzed by iterative non-linear regression analysis with the use of the Statistical Analysis System (SAS): a program similar to “LIGAND” as described by Munson and Rodbard (Anal. Biochem. 1980, 107, 220-239). Fitting was performed according to formulae described by Feldman (Anal. Biochem. 1972, 48, 317-338). IC50 and Ki values were expressed as geometrical mean.

Test [1] deals with T2, 5HT2C receptors (Homo sapiens, UniProt P28335).
T2 sequence (P28335 33-458): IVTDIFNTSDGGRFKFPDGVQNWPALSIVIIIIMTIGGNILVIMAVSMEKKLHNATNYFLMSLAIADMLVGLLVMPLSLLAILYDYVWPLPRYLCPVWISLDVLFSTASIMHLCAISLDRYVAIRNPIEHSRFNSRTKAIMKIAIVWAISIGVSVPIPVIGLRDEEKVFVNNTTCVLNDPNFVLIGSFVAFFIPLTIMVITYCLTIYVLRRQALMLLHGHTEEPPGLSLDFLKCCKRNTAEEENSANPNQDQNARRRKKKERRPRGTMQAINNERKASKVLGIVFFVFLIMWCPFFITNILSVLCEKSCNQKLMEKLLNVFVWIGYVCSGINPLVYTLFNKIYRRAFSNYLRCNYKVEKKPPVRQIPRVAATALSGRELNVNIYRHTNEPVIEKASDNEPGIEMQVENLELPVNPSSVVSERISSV
Nature of the test: Human 5-HT2C functional assay in 1321N1 cells (intracellular calcium, FLIPR). The test is classed as cell-based. More on the design: expressed in transfected cells; host or cells: 1321N1 cells. The settings on record: 5-HT2c agonist activity, maximum calcium response. In short, it runs like this:
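Intracellular calcium (Fluo-4, FLIPR peak response) was measured in stably transfected human 5-HT2C 1321N1 cells after overnight serum-free culture. Compounds were applied at final 10^−10 to 10^−5 M either alone or together with 10^−9 M serotonin. Half-maximal effect concentration was derived by four-parameter logistic fitting.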
(In general: A change in cytosolic calcium serves as a functional read-out for many receptors and channels.)

For another test, the target named is T3, 5HT2B receptors (Homo sapiens, UniProt P41595).
T3 construct: expressed in transfected cells; host or cells: CHO-K1 cells
T3 sequence (P41595 whole entry): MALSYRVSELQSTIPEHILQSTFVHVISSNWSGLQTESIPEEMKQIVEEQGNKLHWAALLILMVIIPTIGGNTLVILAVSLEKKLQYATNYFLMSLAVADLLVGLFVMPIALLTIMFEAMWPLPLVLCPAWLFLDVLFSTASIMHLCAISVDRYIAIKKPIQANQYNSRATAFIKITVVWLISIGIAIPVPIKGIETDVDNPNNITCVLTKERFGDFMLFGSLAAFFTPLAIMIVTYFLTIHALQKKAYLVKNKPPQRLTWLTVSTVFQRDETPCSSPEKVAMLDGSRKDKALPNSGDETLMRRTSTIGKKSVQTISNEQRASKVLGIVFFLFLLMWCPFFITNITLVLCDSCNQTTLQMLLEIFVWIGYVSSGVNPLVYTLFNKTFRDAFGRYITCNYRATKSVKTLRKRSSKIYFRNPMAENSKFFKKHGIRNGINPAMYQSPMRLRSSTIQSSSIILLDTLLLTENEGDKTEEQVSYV
Nature of the test: Human 5-HT2B functional high throughput screening assay in CHO-K1 cells (calcium flux). Type of test: cell-based. The settings on record: for EC50: CHO-K1 cells, calcium flux. In short, it runs like this: (§1)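 Calcium flux in CHO-K1 cells overexpressing each receptor, using Ca4 dye with probenecid and FLIPR detection. Top concentration was 10 μM, diluted 1:10 across 6 points, and efficacy was scaled to serotonin.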

Test [2] has as its target T2, 5HT2C receptors. In words: Human 5-HT2C functional assay in CHO-K1 cells (96-well, calcium, FLIPR). The test is classed as cell-based. To be noted: 5-HT2c agonist activity, CHO-K1 cells stably transfected. More on the design: expressed in transfected cells. As for the experimental part: (iv) Human 5-HT2C Functional Assay in CHO-K1 Cells
Functional activity was determined by testing the effect of the compounds on intracellular calcium levels in CHO-K1 cells stably transfected with the human 5-HT2C receptor. Cells were seeded into 96-well plates at 60,000 cells/well and grown overnight in tissue culture medium (UltraCHO™ (Lonza), containing 1% dFCS, 250 μg/mL Zeocin, 400 μg/mL Geneticin) at 37° C. and 5% CO2. Growth medium was replaced by medium without dFCS for overnight incubation. Cells were loaded with a fluorescent calcium-sensitive dye in the presence of probenicid according to the manufacturer's protocol (FLIPR Ca4 Assay kit, Molecular Devices). Serial compound dilutions (final concentrations 10^−10 to 10^−5 M) were added to the cells and the maximum calcium response was determined using a FLIPR instrument (Molecular Devices). Concentration-response curves were fitted using a four-parameter logistic equation (GraphPad Prism). The concentration at which the compound exerts half its maximal effect is named the ‘effective concentration 50’ or ‘EC50’ and is listed in Table 5.

Test [3] concerns the target T2, 5HT2C receptors. Nature of the test: Human 5-HT2C functional high throughput screening assay in CHO-K1 cells (calcium flux). Type of test: cell-based. More on the design: expressed in transfected cells; host or cells: CHO-K1 cells. The settings on record: for EC50: CHO-K1 cells, calcium flux; for Emax: CHO-K1, 5-HT2C, maximum functional response as percentage relative to the effect of serotonin. In short, it runs like this:
as §1

Test [4] addresses T4, human serotonin 5-HT2c receptor (Homo sapiens, UniProt P28335).
T4 construct: expressed in transfected cells; host or cells: CHO cells (membrane homogenates)
T4 sequence (P28335 33-458): T2 sequence (P28335 33-458)
In words: Human 5-HT2C receptor radioligand binding assay (agonist site, [125I]DOI). To be noted: 5-HT2c agonist site; transfected CHO cell membranes; 0.2 nM [125I](±)DOI. As for the experimental part:
(i) Human 5-HT2C Receptor Radioligand Binding Assay
Affinity of compounds for the agonist site of the […], receptor in transfected CHO cells was determined in a radioligand binding assay essentially as described by Bryant, H. U., et al., Life Sciences (1996) 59(15), 1259-1268.

The mark [5] stands for this setting: HEK293 membranes expressing h-5-HT6 receptor, 1 nM [3H]-LSD, geometrical mean, read-out: Ki (5-HT6 Agonist Site Radioligand Binding).
The mark [6] stands for this setting: 5-HT2B agonist activity, read-out: EC50.
[7] abbreviates: 5-HT2B, maximum functional response as percentage relative to the effect of serotonin.
[8] abbreviates: 5-HT2C agonist activity, read-out: EC50.

Like-named read-outs stand apart in the source and are kept apart here. Some results are limits rather than exact numbers.

T1 sequence (P50406 whole entry): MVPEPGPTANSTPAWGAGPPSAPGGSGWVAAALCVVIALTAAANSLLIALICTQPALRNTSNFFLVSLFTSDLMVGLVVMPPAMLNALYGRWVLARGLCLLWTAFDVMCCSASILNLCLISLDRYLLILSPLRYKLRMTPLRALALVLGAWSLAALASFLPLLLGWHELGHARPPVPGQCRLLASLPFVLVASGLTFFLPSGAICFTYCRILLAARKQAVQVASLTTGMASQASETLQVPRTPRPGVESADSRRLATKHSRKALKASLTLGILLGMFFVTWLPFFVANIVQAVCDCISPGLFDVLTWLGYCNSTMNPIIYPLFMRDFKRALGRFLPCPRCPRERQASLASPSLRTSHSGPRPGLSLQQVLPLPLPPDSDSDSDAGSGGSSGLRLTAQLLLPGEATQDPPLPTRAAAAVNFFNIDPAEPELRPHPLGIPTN

With `O=S(=O)(c1cccc(Cl)c1Cl)N1Cc2ccccc2[C@@H]2CN(Cc3ccccc3)C[C@H]2C1` (relative stereo) [Example 9, Trans-2-benzyl-5-(2,3-dichlorophenylsulfonyl)-1,2,3,3a,4,5,6,10b-octahydrobenzo[c]pyrrolo[3,4-e]azepine], the Ki at h-5-HT6 receptor (setting [5]) was found to be 17.1 nM. For the same compound, the EC50 on 5HT2C receptors [1] is over 10000 nM.
Take `CN1C[C@H]2CNC(=O)c3cc(-c4ccccc4)ccc3[C@@H]2C1` (relative stereo) [Example 86, Trans-2-methyl-8-phenyl-1,2,3,3a,4,5-hexahydrobenzo[e]pyrrolo[3,4-c]azepin-6(10bH)-one]: the results for the EC50 at 5HT2B receptors (setting [6]), at 5HT2C receptors [2] and at 5HT2C receptors [3] (setting [8]) were over 10000 nM, 3.7 nM and 7 nM, respectively. For the same compound, the Emax result was “inactive” on 5HT2B receptors (setting [7]) and 110% at 5HT2C receptors [3] (read-out: Emax).
In the case of `Clc1ccc2c(c1)[C@H]1CNC[C@@H]1CCO2` (relative stereo) [Example 95, Trans-9-chloro-2,3,3a,4,5,10b-hexahydro-1H-[1]benzoxepino[4,5-c]pyrrole], the results for the Emax on 5HT2B receptors (CHO-K1) and on 5HT2C receptors [3] were 35% and over 120%, respectively. Also, the EC50 on 5HT2C receptors [2] came out at 1.7 nM.
As for `CN1C[C@H]2CN(S(=O)(=O)c3ccccc3)Cc3ccccc3[C@@H]2C1` (relative stereo) [Example 71, Trans-2-methyl-5-(phenylsulfonyl)-1,2,3,3a,4,5,6,10b-octahydrobenzo[e]pyrrolo[3,4-e]azepine], the figures for the Ki (in test [4]; at h-5-HT6 receptor) were 15 nM and 4.42 nM, respectively. The EC50 at 5HT2C receptors [1] amounted to 14.2 nM.
With `CN1C[C@H]2CNC(=O)c3cc(F)ccc3[C@@H]2C1` (relative stereo) [Example 91, Trans-8-fluoro-2-methyl-1,2,3,3a,4,5-hexahydrobenzo[e]pyrrolo[3,4-c]azepin-6(10bH)-one], the values for the maximum response (Emax) on 5HT2B receptors (CHO-K1) and on 5HT2C receptors [3] were 25% and over 120%, respectively. The EC50 on 5HT2B receptors (EC50, 5-HT2B agonist activity) stood at 3000 nM; at 5HT2C receptors [2] it was 1.5 nM; on 5HT2C receptors [3] (EC50, 5-HT2C agonist activity), 20 nM.
Turning to `O=S(=O)(c1cccc(F)c1)N1Cc2ccccc2[C@@H]2CNC[C@H]2C1` (relative stereo) [Example 54, Trans-5-(3-fluorophenylsulfonyl)-1,2,3,3a,4,5,6,10b-octahyrobenzo[c]pyrrolo[3,4-e]azepine], the Ki stood at 9.1 nM in test [4] and 121 nM on h-5-HT6 receptor. The EC50 at 5HT2C receptors [1] was 13.2 nM.
Turning to `CN1C[C@H]2CNC(=O)c3cc(OCc4cccc(F)c4)ccc3[C@@H]2C1` (relative stereo) [Example 217, Trans-8-(3-fluorobenzyloxy)-2-methyl-1,2,3,3a,4,5-hexahydrobenzo[c]pyrrolo[3,4-e]azepin-6(10bH)-one], the values for the EC50 at 5HT2B receptors (setting [6]) and at 5HT2C receptors [3] (setting [8]) were over 10000 nM and 2 nM, respectively. Moreover, the Emax entry at 5HT2B receptors (setting [7]) is “inactive”; on 5HT2C receptors [3] (read-out: Emax), 120%. Also, the Ki at h-5-HT6 receptor (setting [5]) was 3180 nM.
As to `O=S(=O)(c1cc(Cl)ccc1Cl)N1Cc2ccccc2[C@@H]2CN(Cc3ccccc3)C[C@H]2C1` (relative stereo) [Example 10, Trans-2-benzyl-5-(2,5-dichlorophenylsulfonyl)-1,2,3,3a,4,5,6,10b-octahydrobenzo[c]pyrrolo[3,4-e]azepine], at h-5-HT6 receptor (setting [5]), the Ki turned out to be 174 nM.
Same read-out and setting: then `COc1ccc(OC)c(S(=O)(=O)N2Cc3ccccc3[C@@H]3CN(Cc4ccccc4)C[C@H]3C2)c1` (relative stereo) [Example 15, Trans-2-benzyl-5-(2,5-dimethoxyphenylsulfonyl)-1,2,3,3a,4,5,6,10b-octahydrobenzo[c]pyrrolo[3,4-e]azepine], with 490 nM.
Regarding `CN1C[C@H]2CN(S(=O)(=O)c3ccccc3)Cc3ccccc3[C@H]2C1` (relative stereo) [Example 72, Cis-2-methyl-5-(phenylsulfonyl)-1,2,3,3a,4,5,6,10b-octahydrobenzo[c]pyrrolo[3,4-e]azepine], the Ki was found to be 65 nM in test [4] and 71.7 nM on h-5-HT6 receptor. The EC50 on 5HT2C receptors [1] was determined as 51.9 nM.
Turning to `N#Cc1ccccc1S(=O)(=O)N1Cc2ccccc2[C@@H]2CN(Cc3ccccc3)C[C@H]2C1` (relative stereo) [Example 21, Trans-2-benzyl-5-(2-cyanophenylsulfonyl)-1,2,3,3a,4,5,6,10b-octahydrobenzo[c]pyrrolo[3,4-e]azepine], at h-5-HT6 receptor (setting [5]), the Ki worked out at 36.1 nM.

In general, Ki refers to a dissociation constant, usually derived from enzyme kinetics or from competition with a known ligand. As usually defined, the EC50 is the concentration that produces a half-maximal response. The Emax is the greatest response seen or fitted, relative to the assay's reference.

These data come from patent publication US8846951B2 (AbbVie Inc., priority 2009, dated 2014).
